The values below come from patent US8691811B2, “Quinazolinone linked pyrrolo[2,1-c][1,4]benzodiazepine hybrids as potential anticancer agents and process for the preparation thereof” (Council of Scientific & Industrial Research, priority 2008, dated 2014).

For one test, the system named is Colo-205. In words: Tata protocol cytotoxicity (SRB, 48 h), Colo-205. Particulars: Colo-205, colon. The test is classed as cell-based, human. Here is the method: (§1) The C8-linked quinazolinone-PBD hybrids (5b, 5c, 5k, 5l, 5m) have been tested against eleven human tumour cell lines derived from seven cancer types (lung cancer, colon cancer, cervix, ovarian cancer, oral cancer, prostate cancer and breast cancer) as per Tata protocol. For each compound, dose response curves for individual cell lines have been measured at a minimum of five concentrations at 10 fold dilutions. A protocol of 48 h continuous drug exposure has been used, and a sulforhodamine B (SRB) protein assay was used to estimate cell viability or growth. Compounds 5b, 5c, 5k, 5l, 5m have been evaluated for their in vitro cytotoxicity in eleven cell lines from seven human cancer types of lung (Hop-62, A-549) colon (COLO-205) cervix (Si-Ha), ovary (A-2780), prostate (PC3) breast (MCF7, Zr-75-1), oral (DWD, GURAV, KB). The results are expressed as percent of cell growth determined relative to that of untreated control cells (Table-4).

The next test relates to PC-3. In words: Tata protocol cytotoxicity (SRB, 48 h), PC-3. Conditions: PC-3, prostate. The test is classed as cell-based, human. The procedure: as §1
The next test has as its system DWD. The test can be described thus: Tata protocol cytotoxicity (SRB, 48 h), DWD. The test is classed as cell-based, human. Particulars: oral. Here is the method: as §1
The test system of another test is GURAV. The test can be described thus: Tata protocol cytotoxicity (SRB, 48 h), GURAV. The test is classed as cell-based, human. Conditions: oral. Here is the method: as §1
A further test concerns A-549. In words: Tata protocol cytotoxicity (SRB, 48 h), A-549. The test is classed as cell-based, human. The procedure: as §1
The subject of test [1] is breast cancer cell lines (MCF7, Zr-75-1). The test can be described thus: Tata protocol cytotoxicity (SRB, 48 h), breast panel. The test is classed as cell-based. Conditions: Homo sapiens; range over the panel; exposure period of at least 48 hrs; read-out: IC50, in vitro activity against breast. Here is the method: as §1
Test [2] relates to duplex-form calf thymus DNA (CT-DNA). The test can be described thus: Thermal denaturation studies with calf thymus DNA. The test is classed as binding. Conditions: [PBD]:[DNA] molar ratio 1:5, CT-DNA 100 μM, ligand 20 μM, pH 7.00. The procedure: Compounds have been subjected to thermal denaturation studies with duplex-form calf thymus DNA (CT-DNA) using a modification of a reported procedure. Working solutions in aqueous buffer ([…] NaH2PO4/Na2HPO4, 1 mM Na2EDTA, pH 7.00+0.01). containing CT-DNA (100 μm in phosphate) and the PBD (20 μm) have been prepared by addition of concentrated PBD solutions in DMSO to obtain a fixed [PBD]/[DNA] molar ratio of 1:5. The DNA-PBD solutions have been incubated at 37° C. for 0 and 18 hrs prior to analysis. Samples have been monitored at 260 nm using a Beckman DU-800 spectrophotometer fitted with high performance temperature controller, and heated at 1° C. min^−1 in the 40-110° C. range. DNA helix→coil transition temperatures (Tm) have been obtained from the maxima in the d(A260)/dT derivative plots. Drug-induced alterations in DNA melting behavior are given by: ΔTm=Tm(DNA+PBD)−Tm(DNA alone), where the Tm value for the PBD-free CT-DNA is 68.5±0.01.
The DNA-binding for these novel C8-linked quinazolinone-PBD hybrids has been examined by thermal denaturation studies using calf thymus (CT) DNA. […] Data for 5b, 5c, 5d, and 5k, 5l, 5m and DC-81 are included in Table 5 for comparison.

The subject of a further test is KB. The test can be described thus: Tata protocol cytotoxicity (SRB, 48 h), KB. The test is classed as cell-based, human. Conditions: oral. The procedure: as §1
In test [3] the test system is eleven human tumour cell lines. In words: Tata protocol in vitro cytotoxicity (SRB, 48 h), all cell lines. The test is classed as cell-based. Particulars: bound over all eleven cell lines, read-out: GI50 value against eleven cell lines in seven cell panels. Here is the method: as §1
In test [4] the test system is prostate cancer cell line (PC3). The test can be described thus: Tata protocol cytotoxicity (SRB, 48 h), prostate panel. The test is classed as cell-based. Particulars: Homo sapiens; exposure period of at least 48 hrs; read-out: GI50, in vitro activity against prostate. The procedure:
as §1

Test [5] relates to ovarian cancer cell line (A-2780). In words: Tata protocol cytotoxicity (SRB, 48 h), ovarian panel. The test is classed as cell-based. Particulars: Homo sapiens, A2780; exposure period of at least 48 hrs; read-out: GI50, in vitro activity against ovarian. Here is the method: as §1
Another test concerns HOP-62. The test can be described thus: Tata protocol cytotoxicity (SRB, 48 h), HOP-62. The test is classed as cell-based, human. Conditions: HOP-62, lung. Here is the method: as §1
Test [6] relates to colon cancer cell line (COLO-205). The test can be described thus: Tata protocol cytotoxicity (SRB, 48 h), colon panel. Conditions: Homo sapiens, exposure period of at least 48 hrs, read-out: GI50, in vitro activity against colon. The test is classed as cell-based. The procedure:
as §1

In a further test the test system is MCF7. In words: Tata protocol cytotoxicity (SRB, 48 h), MCF7. The test is classed as cell-based, human. Conditions: MCF7, breast. The procedure: as §1
The next test deals with A-2780. In words: Tata protocol cytotoxicity (SRB, 48 h), A-2780. The test is classed as cell-based, human. Here is the method: as §1
The test system of test [7] is lung cancer cell lines (Hop-62, A-549). The test can be described thus: Tata protocol cytotoxicity (SRB, 48 h), lung panel. The test is classed as cell-based. Conditions: Homo sapiens; range over the panel; exposure period of at least 48 hrs; read-out: GI50, in vitro activity against lung. The procedure:
as §1

A further test deals with Si-Ha. The test can be described thus: Tata protocol cytotoxicity (SRB, 48 h), Si-Ha. The test is classed as cell-based, human. Particulars: cervix. Here is the method: as §1
The next test deals with Zr-75-1. The test can be described thus: Tata protocol cytotoxicity (SRB, 48 h), Zr-75-1. The test is classed as cell-based, human. Particulars: Zr-75-1, breast. Here is the method: as §1

`COc1cc2c(cc1OCCCOc1ccc(-n3c(C)nc4ccccc4c3=O)cc1)N=C[C@@H]1CCCN1C2=O` [5b, 7-methoxy-8{-3-[4-(2-methyl-4-oxo-3,4-dihydro-3-quinazolinyl)phenoxy]propoxy}-(11aS)-1,2,3,11a-tetrahydro-5H-pyrrolo[2,1-c][1,4]benzodiazepine-5-one]: the concentration for 50% growth inhibition (GI50) was 140 nM with Colo-205 (Homo sapiens); 130 nM in the test with PC-3 (Homo sapiens); 110 nM in the test on DWD (Homo sapiens); 130 nM in the test on GURAV (Homo sapiens); 1480 nM in the test on A-549 (Homo sapiens, A549, A-549, lung); 150 nM in the test on KB (Homo sapiens). For the same compound, the 50% growth inhibitory concentration (GI50) was less than 1830 nM in [3]; 130 nM in test [4]; 100 nM in test [5]; 160 nM in the test with HOP-62 (Homo sapiens); 140 nM in [6]; 1830 nM with MCF7 (Homo sapiens). The GI50 with A-2780 (Homo sapiens, A2780, A-2780, ovary) is 100 nM; in [7] it was 160 to 1480 nM; in the test with Si-Ha (Homo sapiens, SiHa), 160 nM; in the test on Zr-75-1 (Homo sapiens), 160 nM. Besides, in test [1], the half-inhibitory concentration (IC50) was 160 to 1830 nM. Also, in [2], the “ΔTm after incubation at 37° C. for 0 h” value was 1.0 °C. Further, the “ΔTm after incubation at 37° C. for 18 h” value in test [2] was found to be 2.0 °C.

Consider `COc1cc2c(cc1OCCCCOc1ccc(-n3c(C)nc4ccccc4c3=O)cc1)N=C[C@@H]1CCCN1C2=O` [5c, 7-methoxy-8{-4-[4-(2-methyl-4-oxo-3,4-dihydro-3-quinazolinyl)phenoxy]butoxy-}-(11aS)-1,2,3,11a-tetrahydro-5H-pyrrolo[2,1-c][1,4]benzodiazepine-5-one], for which the GI50 was 1810 nM in the test on Colo-205; 170 nM in the test with PC-3; 1600 nM in the test with DWD; 1950 nM in the test on GURAV; 1930 nM in the test with A-549 (A-549, lung); 1980 nM with KB. The GI50 turned out to be 1950 nM with HOP-62; 2300 nM in the test with MCF7; 160 nM in the test with A-2780 (A-2780, ovary); 1910 nM in the test with Si-Ha; 1970 nM in the test with Zr-75-1. In addition, in test [2], the “ΔTm after incubation at 37° C. for 0 h” value was 1.0 °C. Further, the “ΔTm after incubation at 37° C. for 18 h” value in [2] is 2.1 °C.

For the compound `COc1cc2c(cc1OCCCOc1ccc(-n3c(/C=C/c4ccccc4)nc4ccccc4c3=O)cc1)N=C[C@@H]1CCCN1C2=O` [5k, 7-methoxy-8-{3-[(4-4-oxo-2-[(E)-2-phenyl-1-ethenyl]-3,4-dihydro-3-quinazolinylphenyl)oxy]propoxy}-(11aS)-1,2,3,11a-tetrahydro-5H-pyrrolo[2,1-c][1,4]benzodiazepine-5-one], the GI50 with Colo-205 came out at 2120 nM; in the test on PC-3, 160 nM; with DWD, 140 nM; with GURAV it was 1850 nM; in the test on A-549 (A-549, lung) it was 1880 nM; in the test on KB, 1780 nM. In addition, the concentration for 50% growth inhibition (GI50) in the test on HOP-62 turned out to be 2150 nM; in the test on MCF7, 2030 nM; in the test with A-2780 (A-2780, ovary), 140 nM; in the test on Si-Ha it was 2000 nM; with Zr-75-1, 170 nM. For the same compound, in [2], the “ΔTm after incubation at 37° C. for 0 h” value came to 1.0 °C. In [2], the “ΔTm after incubation at 37° C. for 18 h” value came out at 2.0 °C.

For `COc1cc2c(cc1OCCCCOc1ccc(-n3c(/C=C/c4ccccc4)nc4ccccc4c3=O)cc1)N=C[C@@H]1CCCN1C2=O` [5l, 7-methoxy-8-{4-[(4-4-oxo-2-[(E)-2-phenyl-1-ethenyl]-3,4-dihydro-3-quinazolinylphenyl)oxy]butoxy}-(11aS)-1,2,3,11a-tetrahydro-5H-pyrrolo[2,1-c][1,4]benzodiazepine-5-one], the GI50 turned out to be 2230 nM in the test on Colo-205; 1910 nM in the test with PC-3; 160 nM with DWD; 1930 nM in the test with GURAV; 2390 nM in the test on A-549 (A-549, lung); 2070 nM in the test with KB. Also, the concentration for 50% growth inhibition (GI50) amounted to 2330 nM in the test with HOP-62; 160 nM in the test on A-2780 (A-2780, ovary); 2190 nM in the test with Si-Ha; 2440 nM with Zr-75-1. The “ΔTm after incubation at 37° C. for 0 h” value in test [2] came out at 1.2 °C. Besides, in test [2], the “ΔTm after incubation at 37° C. for 18 h” value was 2.3 °C.

As for `COc1cc2c(cc1OCCCCCOc1ccc(-n3c(/C=C/c4ccccc4)nc4ccccc4c3=O)cc1)N=C[C@@H]1CCCN1C2=O` [5m, 7-methoxy-8-{5-[(4-4-oxo-2-[(E)-2-phenyl-1-ethenyl]-3,4-dihydro-3-quinazolinylphenyl)oxy]pentyloxy}-(11aS)-1,2,3,11a-tetrahydro-5H-pyrrolo[2,1-c][1,4]benzodiazepine-5-one], the 50% growth inhibitory concentration (GI50) in the test with Colo-205 came to 2000 nM; with PC-3, 1830 nM; in the test with DWD, 170 nM; in the test with GURAV, 1820 nM; with A-549 (A-549, lung), 2620 nM; with KB, 2150 nM. The GI50 in the test with HOP-62 is 2310 nM; in the test on MCF7, 2500 nM; in the test with A-2780 (A-2780, ovary) it was 150 nM; with Si-Ha, 2080 nM; with Zr-75-1, 2090 nM. Also, the “ΔTm after incubation at 37° C. for 0 h” value in [2] was 1.1 °C. Besides, the “ΔTm after incubation at 37° C. for 18 h” value in test [2] came out at 2.1 °C.

On to `COc1cc2c(cc1O)N=CC1CCCN1C2=O` (stereo not drawn) [DC-81, reference compound], for which, in test [2], the “ΔTm after incubation at 37° C. for 0 h” value amounted to 0.3 °C and the “ΔTm after incubation at 37° C. for 18 h” value turned out to be 0.7 °C.

By GI50 is commonly meant the concentration at which growth is held to half of that of the control. As usually defined, the IC50 is the midpoint of a concentration-inhibition curve.
